Measurements reported in patent US11077167B2, “Agent for promoting skeletal muscle injury repair” (Osaka University, priority 2017, dated 2021).

Experiments:
[1] = tested on: Human skeletal muscle satellite cells (HskMSCs); assay: Cell proliferative capacity (WST-1 assay); type: cell-based; conditions: SV peptide 20 ng/mL; 0-72 hours
From the text: (§1) Human skeletal muscle satellite cells (HskMSCs) were purchased from ScienCell Research Laboratories and used. The medium used for HskMSC culture was the supplier's recommended medium (Skeletal Muscle Cell Medium containing 5% FBS, Skeletal Muscle Cell Growth Supplement, and penicillin/streptomycin solution).
(§2) Human skeletal muscle satellite cells and human skeletal muscle myoblasts were separately seeded at 1.0×10^4 cells/mL in each well of non-treated polystyrene 96-well cell culture plates (Falcon). The SV peptide (20 ng/mL, SV group), the random SV (20 ng/mL, random SV group), or PBS (PBS group) was added to the medium. The plates were cultured at 37° C. in a 5% CO2 atmosphere. After 0, 12, 24, 48, and 72 hours, cell proliferation was assessed using Premix WST-1 Cell Proliferation Assay System (Takara Bio, Japan).

[2] = tested on: muscle injury model rats (incised masseter muscles on both sides); assay: Behavioral physiological experiment (feeding behavior, body weight), Example 1; type: in vivo, Jcl:SD rats; conditions: 1 mL intramuscular
Experimental: (§3) Incisions were made in masseter muscles on both sides in Jcl:SD rats (10 weeks old). Immediately after muscle incision, 1 mL each of the SV peptide (20 ng/mL) was intramuscularly administered into several sites surrounding the cut surfaces. The incision on each side was made along a straight line connecting the lateral angle of the eye and the mandibular angle, extending in depth from the fascia on the skin side to the lateral periosteum on the mandibular ramus. The cut surfaces were subjected to electrocoagulation with an electric scalpel for the arrest of bleeding (see FIG. 1).
Feeding behavior and body weight of each rat was monitored preoperatively and 1 and 2 weeks postoperatively. More specifically, each rat was housed in a transparent plastic cage of 30 cm in length×30 cm in width×30 cm in height, and the behavior was recorded on video cameras during the active time of rats (18:00 to 22:00). Food intake and mastication time were measured, and the food intake per unit of mastication time (feeding efficiency) was calculated. This experiment was performed on a muscle injury model subjected to administration of the SV peptide into the incised masseter muscles on both sides (SV group) and on a muscle injury model subjected to administration of PBS into the incised masseter muscles on both sides (PBS group).

[3] = tested on: Human skeletal muscle myoblasts (HSMMs); assay: Chemotactic capacity (Chemotaxicell membrane); type: cell-based; conditions: SV peptide 20 ng/mL as chemoattractant; 12 hours; vs PBS or random SV
Experimental: (§4) Human skeletal muscle myoblasts (HSMMs) were purchased from Lonza and used. The medium used for HSMM culture was the supplier's recommended medium (Skeletal Muscle Growth Media-2 supplemented with SingleQuots Kit).
(§5) A polycarbonate membrane with a pore size of 8 μm (Chemotaxicell: Kurabo Industries LTD.) was immersed in a 10 μg/mL fibronectin solution at room temperature for 30 minutes for coating the membrane. A medium containing the SV peptide (20 ng/mL, SV group), the random SV (20 ng/mL, random SV group), or PBS (PBS group) as a chemoattractant was added to a lower chamber. On an upper chamber, human skeletal muscle satellite cells and human skeletal muscle myoblasts were separately seeded at 2.0×10^4 cells/mL in DMEM containing 0.1% BSA. A pair of chambers was incubated at 37° C. for 12 hours. The cells on the upper surface of the membrane were removed with a swab, and the membrane was fixed with a 10% neutral buffered formalin solution (Wako Pure Chemical Industries, Ltd.) and stained with hematoxylin. The number of cells migrated to the lower surface of the membrane was measured under an optical microscope.

[4] = tested on: Human skeletal muscle myoblasts (HSMMs); assay: Cell proliferative capacity (WST-1 assay); type: cell-based; conditions: SV peptide 20 ng/mL
Experimental: as §4, §2

[5] = tested on: Human skeletal muscle myoblasts (HSMMs); assay: Myogenin expression by immunofluorescence staining; type: cell-based; conditions: SV peptide 20 ng/mL, HS group = 2% horse serum positive control
From the text: as §4
Myogenin is known to be expressed when myoblasts differentiate into myotube cells. In this experiment, myogenin expression was used as an index to examine the effect of the SV peptide on the differentiation of human skeletal muscle myoblasts.
Human skeletal muscle myoblasts were cultured in a medium containing the SV peptide (20 ng/mL, SV group), the random SV (20 ng/mL, random SV group), or PBS (PBS group) for 48 or 72 hours. For a positive control, human skeletal muscle myoblasts were cultured in an F-12/DMEM medium containing 2% horse serum, which is known to facilitate myoblast differentiation into myotube cells (Moira A. Lawson et al.: Cells Tissues Organs 2000; 167: 130-137) (HS group). After 48- or 72-hour culture, the cells were immunostained with an anti-human myogenin antibody by the usual method and observed with a fluorescence microscope.

[6] = tested on: muscle injury model rats (incised masseter muscles on both sides); assay: Histological staining of masseter muscles at postoperative week 8, Example 2; type: in vivo, Jcl:SD rats; conditions: sirius red staining
Experimental: as §3, with “old) under anesthesia in the same manner as in Example 1.” for “old).”, “ng/mL) or 1 mL each of PBS” for “ng/mL)”, “1). […]” for “1).”
Each rat was euthanized at postoperative week 8, and the masseter muscles on both sides were excised. […] Histological characteristics of regenerated muscle fibers at the muscle injury site were assessed on the HE-stained sections. The amount of muscle fibers formed and the diameter of the muscle fibers in the tissue were measured on the sirius red-staining sections.

[7] = tested on: angiogenesis; conditions: Patent Literature 1, Non Patent Literature 1 and 2; compared with VEGF; cited from earlier work
[8] = tested on: Human skeletal muscle satellite cells (HskMSCs); assay: Chemotactic capacity (Chemotaxicell membrane); type: cell-based; conditions: SV peptide 20 ng/mL as chemoattractant; 12 hours; vs PBS or random SV
Experimental: as §1, §5

SVVYGLR [SV peptide]
cell proliferative capacity [1]: not enhanced | feeding efficiency (food intake per unit of mastication time) ([2]; postoperative week 1, relative to preoperative value = 1, SV peptide 20 ng/mL): reduced | feeding efficiency (food intake per unit of mastication time) ([2]; postoperative week 2, relative to preoperative value = 1, SV peptide 20 ng/mL): recovered to almost the preoperative level | chemotactic capacity (number of cells migrated to lower surface of membrane) [3]: significantly higher chemotactic capacity than that of the counterpart in the PBS group or the random SV group | cell proliferative capacity ([4]; time course within SV group): significantly increased after 24-hour treatment with the SV peptide and then reached a plateau | cell proliferative capacity ([4]; vs PBS group or random SV group, 12 hours and thereafter): significantly higher at 12 hours post-treatment and remained significantly higher thereafter than that in the PBS group or the random SV group | percentage of myogenin-positive cells ([5]; 48-hour culture): significantly higher than that in the PBS group or the random SV group, but significantly lower than that in the HS group | percentage of myogenin-positive cells ([5]; 72-hour culture): significantly higher than that in the PBS group or the random SV group, and comparable to that in the HS group | amount of scar formation (area of scar tissue formed on the cut surfaces) ([6]; SV peptide administration side vs PBS administration side): remarkably reduced from that on the PBS administration side in the PBS group | diameter of the muscle fibers ([6]; SV side vs control side in SV group): significantly larger than that on the control side in the same group | angiogenic activity [7]: high angiogenic activity that is comparable to that of VEGF | chemotactic capacity (number of cells migrated to lower surface of membrane) [8]: tended to have a higher chemotactic capacity than that of the counterpart in the PBS group or the random SV group, but there was no significant intergroup difference
